Source: article PMC6199744, “Development of Chemical Proteomics for the Folateome and Analysis of the Kinetoplastid Folateome” (ACS Infectious Diseases, 2018)
Where “and” joins values, the source holds several entries; their conditions need not be identical. Identical values can stand only once. Like-named read-outs stand apart in the source and are kept apart here.

System: L. major lysate proteins
Assay: Multitargeted bead mixture chemoproteomics, single concentration competition, proteome-wide
Assay type: binding
Details: for fold change: vehicle control = 1

Nc1nc2[nH]cc(CCc3ccc(C(=O)N[C@@H](CCC(=O)O)C(=O)O)cc3)c2c(=O)[nH]1 [PTX, pemetrexed]
fold change relative to vehicle control: 1.01 and 1.04 and 0.91
fold change vs vehicle control: 1.03 and 1.04 and 1
fold change vs vehicle control (protein CLI00016468.1 KIN[…] PROTEIN-11): 0.68
fold change vs vehicle control (protein LINJ.03.0240 RIBOSOMAL PROTEIN L38, PUTATIVE): 1.03
fold change vs vehicle control (protein LINJ.11.0780 40S RIBOSOMAL PROTEIN S21, PUTATIVE): 0.99
fold change (protein LINJ.11.0960 40S RIBOSOMAL PROTEIN S5): 1.07
fold change vs vehicle control (protein LINJ.13.0990 […] SUBUNIT 2, PUTATIVE): 1.06
fold change vs vehicle control (protein LINJ.15.0330 RIBONUCLEOPROTEIN P18, MIT[…], PUTATIVE): 1.08
fold change (protein LINJ.19.0090 FIBRILLARIN, PUTATIVE): 0.88
fold change (protein LINJ.21.1790 40S RIBOSOMAL PROTEIN S11, PUTATIVE): 1.08
fold change relative to vehicle control (protein LINJ.23.0860, 3-KETOACYL-COA THIOLASE, PUTATIVE): 1.16
fold change relative to vehicle control (protein LINJ.24.2300, 60S RIBOSOMAL PROTEIN L12, PUTATIVE): 0.96
fold change vs vehicle control (protein LINJ.25.2230 SUCCINYL-COA […] SUBUNIT, PUTATIVE): 0.97
fold change vs vehicle control (protein LINJ.26.1630 40S RIBOSOMAL PROTEIN S33, PUTATIVE): 0.99
fold change vs vehicle control (protein LINJ.28.1100 RIBOSOMAL PROTEIN S20, PUTATIVE): 0.99
fold change relative to vehicle control (protein LINJ.28.1940, R[…] A, 51KDA SUBUNIT, PUTATIVE): 0.99
fold change (protein LINJ.28.2280 DYNEIN LIGHT CHAIN LC6, FLAGELLAR OUTER ARM, PUTATIVE): 0.87
fold change (protein LINJ.28.2870 PROTEIN PHOSPHATASE 4 CATALYTIC SUBUNIT, PUTATIVE): 0.97
fold change relative to vehicle control (protein LINJ.31.1600, CYTOCHROME C OXIDASE VIII (COX VIII), PUTATIVE): 0.89
fold change relative to vehicle control (protein LINJ.33.1730, CYCLOPHILIN 4, PUTATIVE): 1.47
fold change vs vehicle control (protein LINJ.34.0670 […]-ATP-ASE SUBUNIT 11, PUTATIVE,19S […]): 0.91
fold change vs vehicle control (protein LINJ.36.0780 PROTEIN KINASE, PUTATIVE,MITOGEN-ACTIVATED PROTEIN KINASE, PUTATIVE): 0.92
fold change relative to vehicle control (protein LINJ.36.3960, BASIC TRANSCRIPTION FACTOR 3A, PUTATIVE): 1.33
fold change relative to vehicle control (protein LINJ.36.4080, HY[…], CONSERVED): 0.93
fold change (protein LINJ.36.4180 HS1VU COMPLEX P[…]-LIKE): 0.92
fold change vs vehicle control (protein LINJ.[…] LONG-CHAIN-FATTY-ACID-COA LIGASE, PUTATIVE): 0.9
fold change (protein LMJF.01.0570 TRICARBOXYLATE CARRIER, PUTATIVE): 0.96
fold change relative to vehicle control (protein LMJF.03.0200, DELTA-1-PYRROLINE-5-CARBOXYLATE DEHYDROGENASE, PUTATIVE): 1.03
fold change (protein LMJF.03.0230 LONG CHAIN FATTY ACYL COA SYNTHETASE, PUTATIVE): 0.99
fold change (protein LMJF.03.0980 […] 2 ALPHA SUBUNIT, PUTATIVE): 0.97
fold change vs vehicle control (protein LMJF.04.0630 HY[…], CONSERVED): 0.99
fold change vs vehicle control (protein LMJF.04.1230 actin): 1
fold change (protein LMJF.05.0100 PHOSPHOPROTEIN PHOSPHATASE, PUTATIVE): 0.71
fold change (protein LMJF.05.0280 PROTEIN TYROSINE PHOSPHATASE, PUTATIVE): 0.88
fold change (protein LMJF.05.0510 ATPASE ALPHA SUBUNIT): 1.05
fold change (protein LMJF.05.1040 STOMATIN-LIKE PROTEIN): 0.94
fold change (protein LMJF.06.0650 […], PUTATIVE): 0.89
fold change vs vehicle control (protein LMJF.07.0700 TOPOISOMERASE-RELATED FUNCTION PROTEIN-LIKE PROTEIN): 0.73
fold change (protein LMJF.07.1000 RNA BINDING PROTEIN-LIKE PROTEIN): 0.93
fold change relative to vehicle control (protein LMJF.07.1140, PEPTIDE […] REDUCTASE-LIKE): 1.13
fold change (protein LMJF.08.0510 RIBOSE-PHOSPHATE PYROPHOSPHOKINASE, PUTATIVE): 0.89
fold change vs vehicle control (protein LMJF.08.0550 T[…]-LIKE PROTEIN): 0.98
fold change relative to vehicle control (protein LMJF.08.1030, cathepsin L-like protease): 1.04
fold change vs vehicle control (protein LMJF.08.1100 HY[…], CONSERVED): 0.92
fold change vs vehicle control (protein LMJF.09.1010 HY[…], CONSERVED): 0.89
fold change relative to vehicle control (protein LMJF.09.1120, MIT[…] BINDING PROTEIN 2,MRP2, GBP25): 1
fold change vs vehicle control (protein LMJF.09.1260 HY[…], CONSERVED): 0.97
fold change (protein LMJF.10.0210 NUCLEOLAR PROTEIN, PUTATIVE): 0.99
fold change vs vehicle control (protein LMJF.10.0310 PROTEIN TRANSPORT PROTEIN SEC23, PUTATIVE): 1.04
fold change (protein LMJF.11.0590 3-METHYLCROTONOYL-COA C[…] SUBUNIT, PUTATIVE): 0.95
fold change relative to vehicle control (protein LMJF.11.0630, AMINOPEPTIDASE, PUTATIVE,METALLO-PEPTIDASE, CLAN MF, FAMILY M17): 1.06
fold change vs vehicle control (protein LMJF.11.1050 PRETRA[…], ALPHA SUBUNIT, PUTATIVE,SEC61-LIKE (PRETRA[…]) PROTEIN, PUTATIVE): 0.96
fold change (protein LMJF.11.1160 PROTEIN TRANSPORT PROTEIN SEC31, PUTATIVE): 0.76
fold change (protein LMJF.12.0030 […]-1 SUBUNIT, PUTATIVE): 0.94
fold change vs vehicle control (protein LMJF.12.0210 […] SUBUNITTCC1L8 3, PUTATIVE): 0.96
fold change relative to vehicle control (protein LMJF.12.0530, GLUCOSE-6-PHOSPHATE ISOMERASE): 1.26
fold change (protein LMJF.12.0630 ALANINE AMINOTRANSFERASE): 0.86
fold change vs vehicle control (protein LMJF.13.1230 40S RIBOSOMAL PROTEIN S4, PUTATIVE): 1.13
fold change vs vehicle control (protein LMJF.14.0310 […] 3 SUBUNIT, PUTATIVE): 1.03
fold change (protein LMJF.14.0660 FATTY ACID ELONGASE, PUTATIVE): 0.92
fold change (protein LMJF.14.0670 FATTY ACID ELONGASE, PUTATIVE): 0.87
fold change vs vehicle control (protein LMJF.14.0680 FATTY ACID ELONGASE, PUTATIVE): 1.08
fold change (protein LMJF.14.0990 ADP/ATP MIT[…]-LIKE PROTEIN): 1.14
fold change vs vehicle control (protein LMJF.14.1160 ENOLASE): 1.01
fold change (protein LMJF.14.1440 HY[…], CONSERVED (cytoskeleton associated protein, putative)): 0.74
